{"source": "paper PMC9030254", "about": "“Target Hopping from Protein Kinases to PXR: Identification of Small-Molecule Protein Kinase Inhibitors as Selective Modulators of Pregnane X Receptor from TüKIC Library” (Cells, 2022)", "assay_in_all_cases": "Kinase profiling", "assay_type_in_all_cases": "biochemical", "key": {"BLK": {"target": "T1, BLK (Homo sapiens, UniProt P51451)", "T1 construct": "purchased ProQinase (Freiburg, Germany)", "T1 sequence (P51451 whole entry)": "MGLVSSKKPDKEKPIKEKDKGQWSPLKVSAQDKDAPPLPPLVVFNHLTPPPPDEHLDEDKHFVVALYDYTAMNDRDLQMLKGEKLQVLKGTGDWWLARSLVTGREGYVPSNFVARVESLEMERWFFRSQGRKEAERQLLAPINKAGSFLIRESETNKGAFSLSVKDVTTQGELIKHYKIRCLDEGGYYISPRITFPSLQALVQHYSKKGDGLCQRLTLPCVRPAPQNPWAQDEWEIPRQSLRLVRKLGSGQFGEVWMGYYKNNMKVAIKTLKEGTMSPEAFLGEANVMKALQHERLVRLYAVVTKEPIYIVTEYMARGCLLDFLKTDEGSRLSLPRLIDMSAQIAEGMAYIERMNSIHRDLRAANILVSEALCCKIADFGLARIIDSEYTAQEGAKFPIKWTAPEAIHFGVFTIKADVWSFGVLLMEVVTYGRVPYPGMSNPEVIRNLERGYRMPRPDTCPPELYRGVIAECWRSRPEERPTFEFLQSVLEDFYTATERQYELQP", "protocol": "(§1) The analysis was performed by ProQinase (Freiburg, Germany)."}, "CDK18/CycY": {"target": "T2, CDK18/CycY (Homo sapiens, UniProt Q07002)", "T2 construct": "purchased ProQinase (Freiburg, Germany)", "protocol": "as §1"}, "CDK6/CycD1": {"target": "T3, CDK6/CycD1 (Homo sapiens, UniProt Q00534)", "T3 construct": "purchased ProQinase (Freiburg, Germany)", "T3 sequence (Q00534 whole entry)": "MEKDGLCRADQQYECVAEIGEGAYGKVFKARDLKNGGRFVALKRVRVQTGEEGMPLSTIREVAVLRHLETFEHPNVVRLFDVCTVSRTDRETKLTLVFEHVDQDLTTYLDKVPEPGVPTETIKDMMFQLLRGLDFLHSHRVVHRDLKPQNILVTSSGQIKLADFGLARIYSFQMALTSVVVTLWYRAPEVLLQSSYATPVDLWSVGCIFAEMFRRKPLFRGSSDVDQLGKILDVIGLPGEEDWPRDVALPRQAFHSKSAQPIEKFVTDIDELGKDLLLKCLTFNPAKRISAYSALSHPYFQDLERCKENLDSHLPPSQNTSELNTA", "T3 sequence (P24385 whole entry partner)": "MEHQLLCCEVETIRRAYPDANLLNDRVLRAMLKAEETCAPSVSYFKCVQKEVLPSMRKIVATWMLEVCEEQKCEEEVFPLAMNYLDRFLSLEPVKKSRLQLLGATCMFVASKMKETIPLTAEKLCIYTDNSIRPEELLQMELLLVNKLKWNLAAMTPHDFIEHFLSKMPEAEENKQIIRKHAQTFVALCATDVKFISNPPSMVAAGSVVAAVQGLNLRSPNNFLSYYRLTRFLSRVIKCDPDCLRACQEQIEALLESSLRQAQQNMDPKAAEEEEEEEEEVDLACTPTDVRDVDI", "protocol": "as §1"}, "CDK6/CycD3": {"target": "T4, CDK6/CycD3 (Homo sapiens, UniProt Q00534)", "T4 construct": "purchased ProQinase (Freiburg, Germany)", "T4 sequence (Q00534 whole entry)": "as the sequence (Q00534 whole entry) above", "T4 sequence (P30281 whole entry partner)": "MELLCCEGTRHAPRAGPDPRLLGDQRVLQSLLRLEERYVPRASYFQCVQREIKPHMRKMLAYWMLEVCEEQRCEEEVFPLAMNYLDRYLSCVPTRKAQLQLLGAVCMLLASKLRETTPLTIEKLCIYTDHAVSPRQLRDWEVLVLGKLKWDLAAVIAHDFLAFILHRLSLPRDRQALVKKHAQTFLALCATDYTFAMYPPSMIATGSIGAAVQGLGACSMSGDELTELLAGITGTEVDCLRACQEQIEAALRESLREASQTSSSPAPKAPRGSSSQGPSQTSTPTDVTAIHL", "protocol": "as §1"}, "CLK1": {"target": "T5, CLK1 (Homo sapiens, UniProt P49759)", "T5 construct": "purchased ProQinase (Freiburg, Germany)", "T5 sequence (P49759 whole entry)": "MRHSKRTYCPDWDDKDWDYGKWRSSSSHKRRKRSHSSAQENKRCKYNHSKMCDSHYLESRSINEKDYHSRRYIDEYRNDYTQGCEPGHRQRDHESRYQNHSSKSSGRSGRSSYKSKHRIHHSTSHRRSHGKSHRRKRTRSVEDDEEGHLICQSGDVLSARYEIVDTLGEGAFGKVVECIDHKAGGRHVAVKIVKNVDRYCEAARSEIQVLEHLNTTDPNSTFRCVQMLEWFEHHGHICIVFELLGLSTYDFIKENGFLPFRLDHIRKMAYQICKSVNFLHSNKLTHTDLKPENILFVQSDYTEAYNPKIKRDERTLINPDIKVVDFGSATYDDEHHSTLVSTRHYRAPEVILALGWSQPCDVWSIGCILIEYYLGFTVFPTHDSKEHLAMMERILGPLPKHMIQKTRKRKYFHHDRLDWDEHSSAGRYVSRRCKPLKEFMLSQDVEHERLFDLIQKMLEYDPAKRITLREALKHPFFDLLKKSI", "protocol": "as §1"}, "CLK3": {"target": "T6, CLK3 (Homo sapiens, UniProt P49761)", "T6 construct": "purchased ProQinase (Freiburg, Germany)", "T6 sequence (P49761 whole entry)": "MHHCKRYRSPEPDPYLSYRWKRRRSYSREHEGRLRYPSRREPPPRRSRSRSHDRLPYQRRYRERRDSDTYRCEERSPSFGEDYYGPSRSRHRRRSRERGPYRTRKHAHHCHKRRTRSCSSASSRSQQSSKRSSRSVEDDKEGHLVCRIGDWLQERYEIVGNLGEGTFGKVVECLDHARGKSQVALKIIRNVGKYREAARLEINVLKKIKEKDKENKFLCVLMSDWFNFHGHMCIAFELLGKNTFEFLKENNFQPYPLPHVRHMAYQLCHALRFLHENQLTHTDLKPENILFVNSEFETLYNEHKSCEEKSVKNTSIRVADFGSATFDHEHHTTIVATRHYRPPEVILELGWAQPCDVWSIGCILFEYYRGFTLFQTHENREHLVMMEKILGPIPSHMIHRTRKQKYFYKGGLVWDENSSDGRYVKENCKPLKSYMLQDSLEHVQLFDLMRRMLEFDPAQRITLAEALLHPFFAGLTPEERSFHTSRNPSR", "protocol": "as §1"}, "EIF2AK2": {"target": "T7, EIF2AK2 (Homo sapiens, UniProt P19525)", "T7 construct": "purchased ProQinase (Freiburg, Germany)", "T7 sequence (P19525 whole entry)": "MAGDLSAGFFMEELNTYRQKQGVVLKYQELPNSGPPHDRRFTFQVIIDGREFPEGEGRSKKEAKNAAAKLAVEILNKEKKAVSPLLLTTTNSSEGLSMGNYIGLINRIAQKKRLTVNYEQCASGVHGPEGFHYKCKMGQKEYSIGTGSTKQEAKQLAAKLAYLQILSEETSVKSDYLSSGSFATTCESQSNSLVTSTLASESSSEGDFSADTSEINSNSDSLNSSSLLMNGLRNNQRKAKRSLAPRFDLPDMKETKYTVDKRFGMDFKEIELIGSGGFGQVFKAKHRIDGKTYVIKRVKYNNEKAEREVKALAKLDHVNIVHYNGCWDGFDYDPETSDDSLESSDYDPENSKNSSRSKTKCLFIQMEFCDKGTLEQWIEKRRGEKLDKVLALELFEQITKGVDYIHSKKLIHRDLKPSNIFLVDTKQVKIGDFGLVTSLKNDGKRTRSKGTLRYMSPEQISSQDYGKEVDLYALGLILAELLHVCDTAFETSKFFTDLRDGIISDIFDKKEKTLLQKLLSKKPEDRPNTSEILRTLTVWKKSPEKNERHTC", "protocol": "as §1"}, "HIPK2": {"target": "T8, HIPK2 (Homo sapiens, UniProt Q9H2X6)", "T8 construct": "purchased ProQinase (Freiburg, Germany)", "T8 sequence (Q9H2X6 whole entry)": "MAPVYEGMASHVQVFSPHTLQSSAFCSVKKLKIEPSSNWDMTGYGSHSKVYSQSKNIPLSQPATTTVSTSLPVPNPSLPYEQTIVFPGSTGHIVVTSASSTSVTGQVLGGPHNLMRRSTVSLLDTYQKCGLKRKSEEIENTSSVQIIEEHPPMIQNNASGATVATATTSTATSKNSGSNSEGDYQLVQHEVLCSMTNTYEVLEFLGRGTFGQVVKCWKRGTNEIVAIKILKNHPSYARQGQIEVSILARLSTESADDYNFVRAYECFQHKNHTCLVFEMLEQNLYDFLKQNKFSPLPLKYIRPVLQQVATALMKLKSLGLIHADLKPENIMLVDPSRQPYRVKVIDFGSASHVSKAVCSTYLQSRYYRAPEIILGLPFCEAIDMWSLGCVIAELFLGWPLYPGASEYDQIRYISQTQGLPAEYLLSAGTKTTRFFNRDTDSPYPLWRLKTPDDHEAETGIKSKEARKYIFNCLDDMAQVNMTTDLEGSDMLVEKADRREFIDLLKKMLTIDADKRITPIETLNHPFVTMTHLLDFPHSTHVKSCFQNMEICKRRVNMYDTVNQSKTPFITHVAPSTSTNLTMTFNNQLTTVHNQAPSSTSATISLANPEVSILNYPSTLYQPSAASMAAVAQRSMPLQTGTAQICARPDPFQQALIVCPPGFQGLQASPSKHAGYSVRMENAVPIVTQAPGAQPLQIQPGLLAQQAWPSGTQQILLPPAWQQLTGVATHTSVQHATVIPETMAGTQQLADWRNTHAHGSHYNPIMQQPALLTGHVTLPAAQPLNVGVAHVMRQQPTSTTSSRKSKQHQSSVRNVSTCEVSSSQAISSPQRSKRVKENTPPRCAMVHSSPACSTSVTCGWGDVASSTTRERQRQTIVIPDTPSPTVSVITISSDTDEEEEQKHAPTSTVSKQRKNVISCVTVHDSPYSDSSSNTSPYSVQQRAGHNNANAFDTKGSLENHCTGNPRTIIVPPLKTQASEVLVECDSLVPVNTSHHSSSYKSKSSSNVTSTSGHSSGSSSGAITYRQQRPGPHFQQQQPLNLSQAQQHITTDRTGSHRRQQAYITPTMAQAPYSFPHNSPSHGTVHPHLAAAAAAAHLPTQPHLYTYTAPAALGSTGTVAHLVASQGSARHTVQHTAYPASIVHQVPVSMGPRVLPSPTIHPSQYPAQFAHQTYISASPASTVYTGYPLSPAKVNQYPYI", "protocol": "as §1"}, "IRAK4": {"target": "T9, IRAK4 (Homo sapiens, UniProt Q9NWZ3)", "T9 construct": "purchased ProQinase (Freiburg, Germany)", "T9 sequence (Q9NWZ3 1-460)": "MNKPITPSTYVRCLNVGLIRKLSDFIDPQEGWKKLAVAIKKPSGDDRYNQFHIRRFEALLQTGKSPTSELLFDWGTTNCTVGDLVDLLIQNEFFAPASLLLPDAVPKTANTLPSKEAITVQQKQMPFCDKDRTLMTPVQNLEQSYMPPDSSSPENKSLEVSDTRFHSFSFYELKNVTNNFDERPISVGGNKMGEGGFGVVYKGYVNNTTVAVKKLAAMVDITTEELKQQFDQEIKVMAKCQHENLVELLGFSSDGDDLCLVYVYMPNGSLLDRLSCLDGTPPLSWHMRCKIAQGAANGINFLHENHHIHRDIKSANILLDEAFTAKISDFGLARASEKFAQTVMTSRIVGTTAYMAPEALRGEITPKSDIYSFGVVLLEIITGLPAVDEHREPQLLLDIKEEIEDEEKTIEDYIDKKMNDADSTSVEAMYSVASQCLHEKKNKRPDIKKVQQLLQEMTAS", "protocol": "as §1"}, "MST2": {"target": "T10, MST2 (Homo sapiens, UniProt Q13188)", "T10 construct": "purchased ProQinase (Freiburg, Germany)", "T10 sequence (Q13188 1-491)": "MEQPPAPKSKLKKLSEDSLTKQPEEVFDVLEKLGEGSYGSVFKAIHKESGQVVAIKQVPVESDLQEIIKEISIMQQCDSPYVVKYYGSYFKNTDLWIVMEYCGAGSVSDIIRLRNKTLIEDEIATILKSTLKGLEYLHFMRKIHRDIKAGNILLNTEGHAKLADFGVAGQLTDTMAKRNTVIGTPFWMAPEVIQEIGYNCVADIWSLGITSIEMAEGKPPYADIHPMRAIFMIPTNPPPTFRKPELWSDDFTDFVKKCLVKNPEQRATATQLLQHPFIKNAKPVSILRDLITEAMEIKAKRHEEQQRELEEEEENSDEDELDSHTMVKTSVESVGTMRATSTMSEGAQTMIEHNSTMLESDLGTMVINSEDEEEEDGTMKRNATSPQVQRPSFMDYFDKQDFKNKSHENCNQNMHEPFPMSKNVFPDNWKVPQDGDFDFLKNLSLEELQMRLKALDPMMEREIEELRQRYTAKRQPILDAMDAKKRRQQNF", "protocol": "as §1"}, "PKCnu": {"target": "T11, PKCnu (Homo sapiens, UniProt O94806)", "T11 construct": "purchased ProQinase (Freiburg, Germany)", "T11 sequence (O94806 1-890)": "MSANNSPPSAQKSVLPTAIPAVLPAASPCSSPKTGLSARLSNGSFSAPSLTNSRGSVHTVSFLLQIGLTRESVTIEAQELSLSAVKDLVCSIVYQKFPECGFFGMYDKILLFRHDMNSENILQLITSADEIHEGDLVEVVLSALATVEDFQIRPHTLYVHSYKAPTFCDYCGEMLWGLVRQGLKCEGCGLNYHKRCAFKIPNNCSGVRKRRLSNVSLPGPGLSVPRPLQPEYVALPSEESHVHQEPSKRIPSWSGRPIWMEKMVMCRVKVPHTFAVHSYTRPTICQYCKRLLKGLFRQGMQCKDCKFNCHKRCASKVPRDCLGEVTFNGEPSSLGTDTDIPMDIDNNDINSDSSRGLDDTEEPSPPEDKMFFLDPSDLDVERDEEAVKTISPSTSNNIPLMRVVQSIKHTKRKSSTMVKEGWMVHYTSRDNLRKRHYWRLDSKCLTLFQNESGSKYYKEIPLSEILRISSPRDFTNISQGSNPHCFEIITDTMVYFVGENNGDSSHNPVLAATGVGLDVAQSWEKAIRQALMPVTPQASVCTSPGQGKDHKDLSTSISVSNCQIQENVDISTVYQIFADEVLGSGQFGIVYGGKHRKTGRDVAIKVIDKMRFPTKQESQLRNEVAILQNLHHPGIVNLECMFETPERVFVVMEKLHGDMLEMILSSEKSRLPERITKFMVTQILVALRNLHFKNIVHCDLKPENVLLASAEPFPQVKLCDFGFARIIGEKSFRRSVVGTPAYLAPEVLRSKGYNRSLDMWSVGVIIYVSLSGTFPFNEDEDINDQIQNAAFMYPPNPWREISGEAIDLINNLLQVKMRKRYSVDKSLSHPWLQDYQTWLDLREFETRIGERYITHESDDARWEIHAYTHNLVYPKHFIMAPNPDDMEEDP", "protocol": "as §1"}}, "data": [{"compound": "O=C(Nc1ccc(F)c(Nc2ccc3c(c2)CCCCC3=O)c1)c1cccc(F)c1", "note": "[Compound 109]", "values": [{"measurement": "Residual activity", "setting": "BLK; 1.0E-05 M", "value": "82 % of control"}, {"measurement": "Residual activity", "setting": "BLK; 1.0E-06 M", "value": "82 % of control"}, {"measurement": "Residual activity", "setting": "CDK18/CycY; 1.0E-05 M", "value": "98 % of control"}, {"measurement": "Residual activity", "setting": "CDK18/CycY; 1.0E-06 M", "value": "91 % of control"}, {"measurement": "Residual activity", "setting": "CDK6/CycD1; 1.0E-05 M", "value": "90 % of control"}, {"measurement": "Residual activity", "setting": "CDK6/CycD1; 1.0E-06 M", "value": "84 % of control"}, {"measurement": "Residual activity", "setting": "CDK6/CycD3; 1.0E-05 M", "value": "93 % of control"}, {"measurement": "Residual activity", "setting": "CDK6/CycD3; 1.0E-06 M", "value": "87 % of control"}, {"measurement": "Residual activity", "setting": "CLK1; 1.0E-05 M", "value": "96 % of control"}, {"measurement": "Residual activity", "setting": "CLK1; 1.0E-06 M", "value": "105 % of control"}, {"measurement": "Residual activity", "setting": "CLK3; 1.0E-05 M", "value": "105 % of control"}, {"measurement": "Residual activity", "setting": "CLK3; 1.0E-06 M", "value": "110 % of control"}, {"measurement": "Residual activity", "setting": "EIF2AK2; 1.0E-05 M", "value": "114 % of control"}, {"measurement": "Residual activity", "setting": "EIF2AK2; 1.0E-06 M", "value": "94 % of control"}, {"measurement": "Residual activity", "setting": "HIPK2; 1.0E-05 M", "value": "95 % of control"}, {"measurement": "Residual activity", "setting": "HIPK2; 1.0E-06 M", "value": "90 % of control"}, {"measurement": "Residual activity", "setting": "IRAK4; 1.0E-05 M", "value": "93 % of control"}, {"measurement": "Residual activity", "setting": "IRAK4; 1.0E-06 M", "value": "92 % of control"}, {"measurement": "Residual activity", "setting": "MST2; 1.0E-05 M", "value": "75 % of control"}, {"measurement": "Residual activity", "setting": "MST2; 1.0E-06 M", "value": "90 % of control"}, {"measurement": "Residual activity", "setting": "PKCnu; 1.0E-05 M", "value": "69 % of control"}, {"measurement": "Residual activity", "setting": "PKCnu; 1.0E-06 M", "value": "88 % of control"}]}, {"compound": "O=C(Cc1ccccc1)Nc1ccc(F)c(Nc2ccc3c(c2)CCCCC3=O)c1", "note": "[Compound 100]", "values": [{"measurement": "Residual activity", "setting": "BLK; 1.0E-05 M", "value": "110 % of control"}, {"measurement": "Residual activity", "setting": "BLK; 1.0E-06 M", "value": "118 % of control"}, {"measurement": "Residual activity", "setting": "CDK18/CycY; 1.0E-05 M", "value": "88 % of control"}, {"measurement": "Residual activity", "setting": "CDK18/CycY; 1.0E-06 M", "value": "93 % of control"}, {"measurement": "Residual activity", "setting": "CDK6/CycD1; 1.0E-05 M", "value": "89 % of control"}, {"measurement": "Residual activity", "setting": "CDK6/CycD1; 1.0E-06 M", "value": "93 % of control"}, {"measurement": "Residual activity", "setting": "CDK6/CycD3; 1.0E-05 M", "value": "92 % of control"}, {"measurement": "Residual activity", "setting": "CDK6/CycD3; 1.0E-06 M", "value": "90 % of control"}, {"measurement": "Residual activity", "setting": "CLK1; 1.0E-05 M", "value": "79 % of control"}, {"measurement": "Residual activity", "setting": "CLK1; 1.0E-06 M", "value": "99 % of control"}, {"measurement": "Residual activity", "setting": "CLK3; 1.0E-05 M", "value": "114 % of control"}, {"measurement": "Residual activity", "setting": "CLK3; 1.0E-06 M", "value": "130 % of control"}, {"measurement": "Residual activity", "setting": "EIF2AK2; 1.0E-05 M", "value": "113 % of control"}, {"measurement": "Residual activity", "setting": "EIF2AK2; 1.0E-06 M", "value": "97 % of control"}, {"measurement": "Residual activity", "setting": "HIPK2; 1.0E-05 M", "value": "101 % of control"}, {"measurement": "Residual activity", "setting": "HIPK2; 1.0E-06 M", "value": "97 % of control"}, {"measurement": "Residual activity", "setting": "IRAK4; 1.0E-05 M", "value": "100 % of control"}, {"measurement": "Residual activity", "setting": "IRAK4; 1.0E-06 M", "value": "97 % of control"}, {"measurement": "Residual activity", "setting": "MST2; 1.0E-05 M", "value": "82 % of control"}, {"measurement": "Residual activity", "setting": "MST2; 1.0E-06 M", "value": "94 % of control"}, {"measurement": "Residual activity", "setting": "PKCnu; 1.0E-05 M", "value": "65 % of control"}, {"measurement": "Residual activity", "setting": "PKCnu; 1.0E-06 M", "value": "88 % of control"}]}]}
